Drawing on patent EP0103381B1, “Substituted anthra(1,9-cd)pyrazol-6(2H)-ones” (WARNER-LAMBERT COMPANY, priority 1982, dated 1984), this text covers IC50, zone of inhibition and response vs control in vivo for eight compounds.

For experiment [1], the system named is HCT-8 (human colon adenocarcinoma) cells. Put plainly: in vitro activity against human colon adenocarcinoma (HCT-8), cell count. In kind it is cell-based. As for the experimental part:
HCT-8 (human colon adenocarcinoma) cells are trypsinized using Trypsin-EDTA. A single cell suspension is achieved by passing the cells through a 26 gauge needle with a 20 cc syringe. A cell suspension is prepared using RPMI 1640 growth medium (available from Gibco Laboratories) +10% fetal calf serum +50 µg/ml garamycin with a cell concentration of approximately 30,000 cells/ml. The cell suspension is dispensed in Linbro 24-well plates; 1 ml/well. The plates are incubated for approximately 48 hrs at 37°C in a 5% C02 atmosphere. At this time test compounds are added in the appropriate concentration. Five µl of the 200 µg/ml stock solution is added to each well in a primary test. Ten pl of the appropriate dilution is added to each well for a titration test. The plates are reincubated an additional 60-65 hrs at 37°C in a 5% C02 atmosphere. The test is read by lysing the cells using a mix of cationic surfactant, glacial acetic acid and sodium chloride. […] of the lysed cell suspension from each well is added to 8 ml of diluent. Each sample is read with a Coulter counter (ZBI model). The activity of each sample is measured as a percentage of the controls and the data is reported as ID50, that is the molar quantity of drug required to kill 50% of the tumor cells.

Experiment [2] relates to Penicillium avellaneum. Put plainly: agar plate paper-disc inhibition zone screening. The experiment is classed as cell-based. Conditions: Hamigera avellanea, read-out: Inhibition Zone Diameter mm (Dose mg/ml) P. Avellaneum; for zone of inhibition at 3000 µg/mL: Dose 3.0 mg/ml; for zone of inhibition at 1000 µg/mL: Dose 1.0 mg/ml. Put shortly:
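Mycelia and spores from a six-day 28°C agar culture, suspended in saline with 0.05% Tween 80 at 20% transmittancy, were seeded into molten agar trays. Compounds at 3,000, 1,000, 500, 100 and 10 mcg/ml (solvent <10%) were applied on 12.7 mm paper discs. After at least 20-24 h incubation, inhibition zone diameter was measured in mm.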

For experiment [3], the system named is Streptococcus faecalis. Put plainly: agar plate paper-disc inhibition zone screening. To be noted: Enterococcus faecalis, read-out: Inhibition Zone Diameter mm (Dose mg/ml) S. Faecalis; for zone of inhibition at 500 µg/mL: Dose 0.5 mg/ml; for zone of inhibition at 1000 µg/mL: Dose 1.0 mg/ml; for zone of inhibition at 3000 µg/mL: Dose 3.0 mg/ml. In kind it is cell-based. Put shortly:
(§1)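 Overnight bacterial cultures were suspended in 0.85% saline to 20-35% light transmittancy and mixed into molten assay agar poured in trays. Compounds at 3,000, 1,000, 500, 100 and 10 mcg/ml (solvent <10%) were applied to 12.7 mm paper discs; after 18-20 h at 37°C, inhibition zone diameters were measured in mm.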

Experiment [4] has as its system Escherichia coli. Put plainly: agar plate paper-disc inhibition zone screening. The experiment is classed as cell-based. To be noted: read-out: Inhibition Zone Diameter mm (Dose mg/ml) E. Coli; for zone of inhibition at 1000 µg/mL: Dose 1.0 mg/ml; for zone of inhibition at 3000 µg/mL: Dose 3.0 mg/ml. Put shortly:
as §1

Experiment [5] deals with Bacillus subtilis. Put plainly: agar plate paper-disc inhibition zone screening. In kind it is cell-based. Conditions: read-out: Inhibition Zone Diameter mm (Dose mg/ml) B. Subtilis; for zone of inhibition at 100 µg/mL: Dose 0.1 mg/ml; for zone of inhibition at 1000 µg/mL: Dose 1.0 mg/ml; for zone of inhibition at 3000 µg/mL: Dose 3.0 mg/ml. Put shortly: as §1
The test system of experiment [6] is Aerobacter aerogenes. Put plainly: agar plate paper-disc inhibition zone screening. In kind it is cell-based. To be noted: Klebsiella aerogenes, read-out: Inhibition Zone Diameter mm (Dose mg/ml) A. Aerogenes; for zone of inhibition at 500 µg/mL: Dose 0.5 mg/ml; for zone of inhibition at 100 µg/mL: Dose 0.1 mg/ml. Put shortly: as §1
Experiment [7] concerns lymphocytic leukemia P388. Put plainly: in vivo lymphocytic leukemia P388 test. Also on record: species or system mice. Conditions: Mus musculus, P388, ip, 720 h, two single doses four days apart, read-out: T/C × 100 (Percent); for response vs control in vivo at 25 mg/kg: P388, Dose 25 mg/kg intraperitoneally; for response vs control in vivo at 50 mg/kg: P388, Dose 50 mg/kg intraperitoneally. The procedure, abridged: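 CD2F mice (6–7 per group) were inoculated intraperitoneally with P388 leukemia ascitic cells. Compounds were then given i.p. as two doses four days apart at various levels. Survival over 30 days was expressed as treated/control time ratio, efficacy criterion T/C×100 >125%.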

Where [8] appears, read: Homo sapiens, HCT-8 cells, 60-65 hrs with compound, molar quantity of drug required to kill 50% of the tumor cells, read-out: ID50 Molar.
Where [9] appears, read: HCT-8 human colon adenocarcinoma cells, 60-65 hrs incubation with compound, Coulter counter cell count as percentage of controls, read-out: ID50 (the source's name).

Like-named read-outs stand apart in the source and are kept apart here.

Take `CCN(CC)CCNc1ccc2c3c(nn2CCN(CC)CC)-c2ccccc2C(=O)c13` [Example 1]: the IC50 in experiment [1] (setting [8]) worked out at 140 nM. Besides, the zone of inhibition at 3000 µg/mL in experiment [2] was found to be 19 mm. Besides, the zone of inhibition at 500 µg/mL in experiment [3] stood at 14 mm; in experiment [6] it was 19 mm. Moreover, the zone of inhibition at 1000 µg/mL in experiment [4] came to 15 mm. Besides, the zone of inhibition at 100 µg/mL in experiment [5] stood at 15 mm.
In the case of `CCN(CC)CCn1nc2c3c(c(NCCN)ccc31)C(=O)c1ccccc1-2` [Example 3, 5-[(2-Aminoethyl)amino]-2-[2-(diethylamino)ethyl]anthra[1,9-cd]pyrazol-6(2H)-one], the IC50 in experiment [1] (setting [8]) was determined as 52 nM. Further, the zone of inhibition at 3000 µg/mL in experiment [2] was found to be 16 mm. In addition, the zone of inhibition at 500 µg/mL worked out at 17 mm in experiment [3] and 14 mm in experiment [6]. Moreover, the zone of inhibition at 1000 µg/mL in experiment [4] is 14 mm. For the same compound, the zone of inhibition at 100 µg/mL in experiment [5] is 15 mm.
Turning to `CCN(CC)CCCNc1ccc2c3c(nn2CCN(CC)CC)-c2ccccc2C(=O)c13` [Example 5, 2-[2-(Diethylamino)ethyl]-5-[[3-(diethylamino)propyl]amino]anthra[1,9-cd]pyrazol-6(2H)-one], the IC50 in experiment [1] (setting [8]) was determined as 180 nM. Besides, the zone of inhibition at 3000 µg/mL in experiment [2] and in experiment [4] was 15 mm throughout. The zone of inhibition at 1000 µg/mL in experiment [3] was determined as 14 mm; in experiment [5], 25 mm. Further, the zone of inhibition at 100 µg/mL in experiment [6] amounted to 20 mm.
Regarding `CCN(CC)CCCCCCCNc1ccc2c3c(nn2CCN(CC)CC)-c2ccccc2C(=O)c13` [Example 6], the IC50 in experiment [1] (setting [8]) turned out to be 2200 nM. The zone of inhibition at 1000 µg/mL in experiment [2] and in experiment [4] was 14 mm throughout. For the same compound, the values for the zone of inhibition at 3000 µg/mL in experiment [3] and in experiment [6] (Dose 3.0 mg/ml) were 14 mm and 0 mm, respectively. The zone of inhibition at 500 µg/mL in experiment [5] (Dose 0.5 mg/ml) amounted to 17 mm.
Take `CCN(CC)CCCCNc1ccc2c3c(nn2CCN(CC)CC)-c2ccccc2C(=O)c13` [Example 7]: the IC50 in experiment [1] (setting [8]) amounted to 220 nM. The zone of inhibition at 3000 µg/mL is 14 mm in experiment [2] and 15 mm in experiment [4]. For the same compound, the zone of inhibition at 1000 µg/mL in experiment [3] was 14 mm; in experiment [5], 17 mm. Besides, the zone of inhibition at 100 µg/mL in experiment [6] was determined as 16 mm.
For the compound `CCN(CC)CCn1nc2c3c(c(NCCN4CCNCC4)ccc31)C(=O)c1ccccc1-2` [Example 9, 2-(2-(Diethylamino)ethyl]-5-[[2-(1-piperazinyl)ethyl]amino]anthra[1,9-cd]pyrazol-6(2H)-one], the IC50 in experiment [1] (setting [8]) worked out at 380 nM. Further, the zone of inhibition at 1000 µg/mL in experiment [2] is 0 mm; in experiment [5] it was 24 mm. In addition, the results for the zone of inhibition at 3000 µg/mL in experiment [3] and in experiment [4] were 14 mm and 0 mm, respectively. In experiment [6], the zone of inhibition at 100 µg/mL stood at 19 mm.
On to `CN(C)CCNCCNc1ccc2c3c(nn2CCN)-c2c(O)ccc(O)c2C(=O)c13` [Example 74, 2-[2-Aminoethyl)-5-[[2-[[2-(dimethylamino)ethyl]amino]ethyl]amino]-7,10-dihydroxyanthra[1,9-cd]pyrazol-6(2H)-one], for which, in experiment [1] (setting [9]), the IC50 turned out to be 1200 nM. For the same compound, in experiment [7] (P388, Dose 12.5 mg/kg intraperitoneally), the response vs control in vivo at 12.5 mg/kg amounted to 186%. Further, in experiment [7], the response vs control in vivo at 25 mg/kg is 192%. For the same compound, the response vs control in vivo at 50 mg/kg in experiment [7] was 220%. The zone of inhibition at 3000 µg/mL in experiment [2] was 0 mm; in experiment [3], 0 mm; in experiment [5], 16 mm.
`NCCCn1nc2c3c(c(NCCNCCO)ccc31)C(=O)c1c(O)ccc(O)c1-2` [Example 90, 2-(3-Aminopropyl)-7,10-dihydroxy-5-[[2-[(2-hydroxyethyl)amino]ethyl]amino]anthra[1,9-cd]pyrazol-6(2H)-one]: the IC50 in experiment [1] (setting [9]) came out at 770 nM. The response vs control in vivo at 25 mg/kg in experiment [7] worked out at 285%. Further, in experiment [7], the response vs control in vivo at 50 mg/kg turned out to be 285%. Besides, the values for the zone of inhibition at 3000 µg/mL in experiment [2], in experiment [3] and in experiment [5] were 0 mm, 0 mm and 16 mm, respectively.
